The IC50 is the midpoint of a concentration-inhibition curve.

Assay [1] relates to cellular cGAS activity in baculovirus-stimulated THP1-Dual cells (IRF dependent Lucia luciferase reporter). Briefly: Human cGAS cell assay: inhibition of IFN induction in virus-stimulated THP1 cells (THP1(vir) IC50). Conditions: Homo sapiens, THP1-Dual. In kind it is cell-based. From the text:
(§1) 6.2 Method: Human cGAS Cell Assay and cGAMP Stimulated Counter Cell Assay (THP1(vir) IC50 and THP1(cGAMP) IC50)
(§2) THP1-Dual™ cells (InvivoGen #thpd-nfis) expressing IRF dependent Lucia luciferase reporter were used as basis for both assays. For the detection of cellular cGAS activity cells were stimulated by a baculovirus (pFastbac-1, Invitrogen, no coding insert) infection that delivers the cGAS enzyme stimulating double-stranded DNA (measurement of THP1(vir) IC50).
(§3) For the counter assay, cells were stimulated by cGAMP (SigmaAldrich #SML1232) to activate the identical pathway independent and directly downstream of cGAS (measurement of THP1(cGAMP) IC50). Pathway activity was monitored by measuring the Lucia luciferase activity induced by either DNA stimulated cGAS enzyme activity (measurement of THP1(vir) IC50) or by cGAMP directly (measurement of THP1(cGAMP) IC50, counter assay).
(§4) Compounds were delivered in 10 mM DMSO solution, serially diluted and transferred to the 384 well assay plate (Greiner #781201) using an Echo acoustic dispenser. Typically, 8 concentrations were used with the highest concentration at 10 μM in the final assay volume followed by ˜1:5 dilution steps. DMSO concentration was set to 1% in the final assay volume. The 384 well assay plate contained 21 test compounds (column 1-22), and DMSO in column 23 and 24.
(§5) Cells, cultivated according to manufacturer conditions, were harvested by centrifugation at 300 g/10 min and were then resuspended and diluted to 1.66E5 cells/ml in fresh cell culture medium (RPMI 1640 (Gibco #A10491-01), 10% FCS (Gibco #10500), 1× GlutaMax (Gibco #35050-061), 1× Pen/Strep solution (Gibco #15140-122), 100 μg/ml Normocin (InvivoGen #ant-nr), 100 μg/ml Zeocin (InvivoGen #ant-zn), 10 μg/ml Blasticidin S (Life Technologies #A11139-03)). The baculovirus solution was then added 1:200 (have varied according to virus batch) to the cells (measurement of THP1(vir) IC50).
(§6) 30 μL of the cell/virus-mix were added to each well of the compound plate from column 1-23 via MultiDrop Combi dispenser (5000 cells/well). In column 24, 30 μl/5000 cells/well without virus were added as a low control.
(§7) The plates were then incubated for 18 h at 37° C. in a humidified incubator.
(§8) Following that, 15 μl of QuantiLuc detection reagent (InvivoGen #rep-qlcg5) were added to each well using a MultiDrop Combi. Measurement was done immediately after the addition using an EnVision reader (US-luminescence read-mode).
(§9) For data evaluation and calculation, the measurement of the low control was set as 0% control and the measurement of the high control was set as 100% control. The IC50 values were calculated using the standard 4 parameter logistic regression formula. Calculation: [y=(a−d)/(1+(x/c)^b)+d], a=low value, d=high value; x=conc M; c=IC50 M; b=slope

The target in a further assay is cGAS (Homo sapiens (Human), UniProt Q8N884). Description: Human cGAS enzyme assay (hcGAS IC50, in vitro), cGAMP formation by RapidFire MS.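 Also: enzyme activated by 45 bp dsDNA with GTP and ATP (30 µM each), 60 min compound pre-incubation then 90 min reaction, cGAMP relative to cyclic-di-GMP internal standard, 8-point dilutions up to 10 µM.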 In kind it is biochemical. Conditions: biochemical (in vitro) cGAS inhibition.
Assay [2] concerns cGAMP-stimulated THP1-Dual cells (pathway directly downstream of cGAS). Description: cGAMP stimulated counter cell assay: inhibition of IFN induction in cGAMP-stimulated THP1 cells (THP1(cGAMP) IC50). In kind it is cell-based, human. Conditions: for IC50: Homo sapiens, THP1-Dual; for Ratio THP1(cGAMP) IC50 / THP1(vir) IC50: selectivity for cGAS inhibition.
Source text: as §1, §2, §3, §4, §5, §6, §7, §8, §9

Assay [3] relates to cellular cGAS activity in dsDNA-stimulated human whole blood. Briefly: Human whole blood assay (hWB IC50): IFNα2α production after dsDNA transfection. In kind it is cell-based. Conditions: inhibition of IFN induction in dsDNA-stimulated human whole blood. The procedure:
6.3 Method: Human Whole Blood Assay (Human WB IC50)
For the detection of cellular cGAS activity human whole blood was stimulated by transfection with double stranded DNA. Pathway activity was monitored by measuring the IFNα2α production.
Compounds were delivered as 10 mM DMSO solution and serially diluted and transferred to the 96-well cell culture plate (Corning #3595), prefilled with 20 μl OptiMEM (Gibco, #11058-021) in each well, using an Echo acoustic dispenser. Typically, 8 concentrations were used with the highest concentration at 10 µM in the final assay volume followed by ˜1:5 dilution steps. DMSO concentration was set to 0.1% in the final assay volume. The 96-well assay plate contained 10 test compounds, and DMSO in control wells.
Collection of human whole blood from 3 or more healthy donors (male or female, no medication for 7 days except contraceptive and thyroxine) as Na-Citrate blood (e.g. 3.8% in Monovettes from Sarstedt) was conducted in parallel. Whole blood was kept at room temperature for a maximum of 3 hours after collection until use in the assay.
160 μl of the whole blood samples was transferred to each well of the 96-well assay plates filled with compound/OptiMEM. All assay plates were prepared as duplicates with blood from different donors. Blood plates were kept at room temperature for 60 minutes and continuous shaking with 450 rpm, covered with the lid, but not sealed.
20 μl OptiMEM and 9.6:1 Fugene was added to all low control wells.
After covering assay plates with aera seals and the lid, blood plates were kept at room temperature for 30 minutes and continuous shaking with 450 rpm, followed by an overnight incubation of 22 h at 37° C. in the incubator, without shaking.
For the detection of IFNα-2α in human plasma, the biotinylated capture antibody (Antibody set IFNA2, Meso Scale Diagnostics #B21VH-3, including coating and capture antibody) was diluted 1:17.5 in Diluent 100 (Meso Scale Diagnostics #R^50AA-4), according to the manufacturer's directions. U-Plex MSD GOLD 96-well Small Spot Strepavidin SECTOR Plates (Meso Scale Diagnostics #L45SA-5) were coated with 25 μl diluted capture antibody. Coated plates were incubated for 60 min at room temperature under continuous shaking at 700 rpm. MSD IFNα-2α plates were washed three times with 150 μl wash buffer (1x HBSS, 0.05% Tween).
After blocking the plates with 100 μl block solution/well (1x HBSS with 0.2% Tween, 2% BSA) for 60 min at room temperature and continuous shaking at 700 rpm, plates were emptied as dry as possible by dumping just before continuing with the human plasma.
Whole Blood assay plates were centrifuged at 1600 rpm for 10 minutes. 25 μl of supernatant was transferred with a pipetting robot from each whole blood plate to the corresponding IFNα-2α plate. Plates were sealed with microplate seals and kept at room temperature again under continuous shaking at 700 rpm for two hours.
Next MSD IFNα-2α plates were washed three times with 150 μl wash buffer (1×HBSS, 0.05% Tween), before adding 25 μl MSD SULFO-TAG IFNα-2α Antibody solution (1:100 diluted in Diluent 3 (Meso Scale Diagnostics #R50AP-2) to each well of the plates.
Afterwards plates were sealed with microplate seals and kept at room temperature again under continuous shaking at 700 rpm for two hours. Finally, MSD IFNα-2α plates were washed three times with 150 μl wash buffer (1×HBSS, 0.05% Tween). 150 μl 2× Read buffer was added to each well and plates were immediately measured with the MSD Sector S600 Reader using the vendor barcode.
For data evaluation and calculation, % control calculation of each well was based on the mean of high (DNA stimulated control) and mean of low (unstimulated control) controls by using the following formula:
[counts(sample)−counts(low))/(counts(high)−counts(low))]*100
The IC50 values were calculated using the standard 4 parameter logistic regression formula. Calculation: [y=(a−d)/(1+(x/c)^b)+d], a=low value, d=high value; x=conc M; c=IC50 M; b=slope

Setting [4] is: inhibition of IFN induction in virus-stimulated THP1 cells, read-out: THP1(vir) IC50.
The mark [5] stands for this setting: inhibition of IFN induction in cGAMP-stimulated THP1 cells, read-out: THP1(cGAMP) IC50 (converted).
Where [6] appears, read: cGAMP-stimulated THP1 cells, counter assay, read-out: THP1(cGAMP) IC50 (converted).
Setting [7] is: read-out: THP1(vir) IC50, virus-stimulated THP1 cells, IFN induction.

Like-named read-outs stand apart in the source and are kept apart here. Where only a bound is given, the exact number is not on record here.

Sequence of cGAS (Q8N884 whole entry): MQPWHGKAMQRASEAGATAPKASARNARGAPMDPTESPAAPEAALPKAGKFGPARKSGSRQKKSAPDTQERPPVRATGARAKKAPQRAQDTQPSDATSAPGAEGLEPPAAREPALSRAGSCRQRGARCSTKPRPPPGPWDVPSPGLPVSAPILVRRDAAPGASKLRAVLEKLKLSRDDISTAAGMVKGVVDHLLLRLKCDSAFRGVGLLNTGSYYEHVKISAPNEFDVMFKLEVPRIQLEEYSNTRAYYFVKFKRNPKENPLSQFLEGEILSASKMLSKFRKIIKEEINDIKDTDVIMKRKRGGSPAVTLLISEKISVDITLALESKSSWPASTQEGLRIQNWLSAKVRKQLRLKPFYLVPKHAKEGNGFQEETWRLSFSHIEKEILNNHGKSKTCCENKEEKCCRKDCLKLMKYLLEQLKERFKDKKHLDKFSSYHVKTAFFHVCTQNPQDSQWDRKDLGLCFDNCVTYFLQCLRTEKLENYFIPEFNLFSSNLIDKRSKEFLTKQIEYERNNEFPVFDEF

`N#CC1CN(c2cc(Cl)cnc2O[C@H]2C[C@@H](C(=O)O)N(c3nc(C(F)(F)F)nc4c3oc3ccccc34)C2)CCO1` (stereo partly drawn) [Example 1.01, (2S,4S)-4-{[5-Chloro-3-(2-cyanomorpholin-4-yl)pyridin-2-yl]oxy}-1-[4-(trifluoromethyl)-8-oxa-3,5-diazatricyclo[7.4.0.0^2,7]trideca-1(13),2,4,6,9,11-hexaen-6-yl]pyrrolidine-2-carboxylic acid]: the half-inhibitory concentration (IC50) in assay [1] (setting [4]) was 0.829 µM; at cGAS, 0.008 µM; in assay [2] (setting [5]), 24.6 µM. Also, in assay [2], the “Ratio THP1(cGAMP) IC50 / THP1(vir) IC50” value was found to be 30.

`CC1(C#N)CCCN(c2cc(Cl)cnc2O[C@H]2C[C@@H](C(=O)O)N(c3nc(C(F)F)nc4c3oc3ccccc34)C2)C1` (some centres unmarked) [Example 1.04]: the figures for the IC50 in assay [1] (setting [4]), in assay [3] and in assay [2] (setting [5]) were 0.327 µM, 3.7 µM and 10 µM, respectively. In addition, the “Ratio THP1(cGAMP) IC50 / THP1(vir) IC50” value in assay [2] is given as 31.

`C[C@@H]1OCCN(c2cc(Cl)cnc2O[C@H]2C[C@@H](C(=O)O)N(c3nc(C(F)(F)F)nc4c3oc3ccccc34)C2)[C@H]1C` [Example 1.06]: the IC50 in assay [1] (setting [4]) was 0.951 µM; on cGAS, 0.065 µM; in assay [2] (setting [5]), 14.3 µM. Also, the “Ratio THP1(cGAMP) IC50 / THP1(vir) IC50” value in assay [2] came out at 15.

In the case of `O=C(O)[C@@H]1C[C@H](Oc2ncc(Cl)cc2N2CCc3nocc3C2)CN1c1nc(C(F)(F)F)nc2c1oc1ccccc12` [Example 1.07], the IC50 in assay [1] (setting [4]) was 0.781 µM; at cGAS, 0.005 µM; in assay [2] (setting [5]) it was 18.7 µM. The “Ratio THP1(cGAMP) IC50 / THP1(vir) IC50” value in assay [2] was found to be 24.

Consider `O=C(O)[C@@H]1C[C@H](Oc2ncc(Cl)cc2N2CCc3nocc3C2)CN1c1nc(C(F)F)nc2c1oc1ccccc12` [Example 1.08], for which the IC50 in assay [1] (setting [4]) is 0.831 µM; on cGAS it was 0.004 µM; in assay [2] (setting [5]), 18.7 µM. Moreover, the “Ratio THP1(cGAMP) IC50 / THP1(vir) IC50” value in assay [2] was determined as 23.

On to `C#Cc1cnc(O[C@H]2C[C@@H](C(=O)O)N(c3nc(C(F)F)nc4c3oc3ccccc34)C2)c(N2CCOC3(COC3)[C@@H]2C)c1` [Example 1.11], for which the IC50 was 0.006 µM in assay [1] (setting [4]), 0.005 µM in assay [3] and 18.5 µM in assay [2] (setting [5]).

Turning to `O=C(O)[C@@H]1C[C@H](Oc2ncc(Br)cc2N2CCOC3(COC3)C2)CN1c1nc(C(F)F)nc2c1oc1ccccc12` [Example 1.24], the IC50 in assay [1] (setting [4]) was 0.848 µM; in assay [3], 0.85 µM; in assay [2] (setting [5]) it was above 16.6 µM. The “Ratio THP1(cGAMP) IC50 / THP1(vir) IC50” value in assay [2] is above 20.

Consider `C#Cc1cnc(O[C@H]2C[C@@H](C(=O)O)N(c3nc(C(F)F)nc4c3oc3ccccc34)C2)c(N2CCOC3(COC3)C2)c1` [Example 1.25], for which the IC50 is 0.517 µM in assay [1] (read-out: THP1(vir) IC50, inhibition of IFN induction in virus-stimulated THP1 cells); 0.551 µM in assay [3]; above 16.6 µM in assay [2] (read-out: THP1(cGAMP) IC50). Also, the “Ratio THP1(cGAMP) IC50 / THP1(vir) IC50” value in assay [2] is reported as above 32.

As for `C#Cc1cnc(O[C@H]2C[C@@H](C(=O)O)N(c3nc(Cl)nc4c3oc3ccccc34)C2)c(N2CCOC[C@@H]2C)c1` [Example 1.32], the IC50 in assay [1] (setting [4]) came to 0.487 µM; at cGAS, 0.004 µM.

For `C#Cc1cnc(O[C@H]2C[C@@H](C(=O)O)N(c3nc(C)nc4c3oc3ccccc34)C2)c(N2CCOC3(COC3)[C@@H]2C)c1` [Example 2.03], the values for the IC50 in assay [1] (setting [4]), in assay [3] and in assay [2] (setting [5]) were below 0.005 µM, 0.009 µM and 16.4 µM, respectively.

In the case of `C[C@@H]1N(c2cc(-c3cccnc3C#N)cnc2O[C@H]2C[C@@H](C(=O)O)N(c3nc(C(F)(F)F)nc4c3oc3ccccc34)C2)CCOC12COC2` [Example 3.28], the IC50 is 0.712 µM in assay [1] (setting [4]), 0.014 µM against cGAS and 16.4 µM in assay [2] (setting [5]). Further, in assay [2], the “Ratio THP1(cGAMP) IC50 / THP1(vir) IC50” value is reported as 23.

In the case of `Cc1nc(N2CCC[C@H]2C(=O)O)c2oc3ccccc3c2n1` [Example 15, reference compound], the IC50 in assay [2] (setting [6]) was above 17 µM.

Turning to `Cc1nc(N2C[C@@H](CC(=O)Nc3ccncc3)C[C@H]2C(=O)O)c2oc3ccccc3c2n1` [Example 28, reference compound], the half-inhibitory concentration (IC50) in assay [1] (setting [7]) was above 32 µM.

In the case of `Cc1nc(N2C[C@@H](Nc3ccncc3)C[C@H]2C(=O)O)c2oc3ccccc3c2n1` [Example 38, reference compound], the IC50 in assay [2] (setting [6]) is above 17 µM.

`CC(C)(C(=O)N[C@H]1C[C@@H](C(=O)O)N(c2nc(C(F)(F)F)nc3c2oc2ccccc23)C1)c1cn[nH]c1` [Example 58, reference compound]: the IC50 in assay [1] (setting [7]) was found to be 21 µM.

For the origin of these results see patent US20240342186A1, “PYRIDINE DERIVATIVES WITH N-LINKED CYCLIC SUBSTITUENTS AS cGAS INHIBITORS” (Boehringer Ingelheim International GmbH, priority 2021, published 2024).
